Measured values as given in US11390609B2, “Rho-associated protein kinase inhibitor, pharmaceutical composition comprising same, and preparation method and use thereof” (BEIJING TIDE PHARMACEUTICAL CO., LTD., priority 2017, dated 2022).

Target: ROCK1 (Homo sapiens (Human), UniProt Q13464)
Assay: ROCK1 kinase IC50 assay (biological test method similar to the ROCK2 assay)
Format: biochemical
Method: The kinase IC50 was determined by a commercialized CISBIO kinase detection kit, HTRF KinEASE-STK S2 kit (62ST2PEC). ROCK2 (01-119) employed in the reaction was purchased from Carna Biosciences.
Before the assay, the following working solutions as needed were formulated with corresponding reagents according to the instruction of the kinase detection kit: 1×kinase buffer, 5×STK-52 substrate working solution (1.5 μM) and 5×ATP working solution (1.5 μM), 5×ROCK2 kinase working solution, 4×Streptavidin-XL665 working solution, and 4×STK-Ab-Cryptate 2 detection solution. Then the assay was performed according to the following procedure.
A solution of a compound at a concentration of 10000 nM was prepared with the 1×kinase buffer containing 2.5% DMSO. Gradient dilution of the solution of the compound was performed with the kinase buffer containing DMSO, so as to obtain solutions of a test compound at 9 different concentrations. In addition to wells of test compounds, a positive well (containing all the reagents except the compound) and a negative well (containing all the reagents except the test compound and kinase) were set. Except for the control wells (positive and negative wells), a solution of a test compound (4 μL) was added to each of the reaction wells, and a solution of 2.5% DMSO was added to the control wells. Then the substrate ([…], 2 μL. 5×STK-S2 substrate working solution) was added to each of the reaction wells. The 5×ROCK2 kinase working solution (2 μL, containing 1.4 ng ROCK2 kinase) was added to each of the reaction wells except for the negative well, the volume of which was made up with the 1×kinase buffer (2 μL). The 5×ATP working solution (2 μL) was added to each of the reaction wells, and the mixtures were incubated at room temperature for 2 hours. After the kinase reaction was complete, the 4×Streptavidin-XL665 working solution was added to each of the reaction wells, the solutions were mixed, followed by immediate addition of the 4×STK-Ab-Cryptate 2 detection solution (5 μL), and the mixtures were incubated at room temperature for 1 hour. The fluorescence signal was read on ENVISION (Perkinelmer) (excitation wavelength: 320 nm, and emission wavelength: 665 nm and 615 nm). The inhibitory rate in each well was calculated based on the fluorescence intensity value: ER (Emission Ratio)=(fluorescence intensity at 665 nm/fluorescence intensity at 615 nm); inhibitory rate=(ERpositive−ERtest compound)/(ERpositive−ERnegative)*100%. Curves were plotted and fitted to obtain the median inhibitory concentration (IC50) of each teat compound with the PRISM 5.0 software.
According to a biological test method similar to the above, the IC50 values of the compounds on ROCK1 were tested.

Chain of ROCK1 (Q13464 whole entry, species assumed): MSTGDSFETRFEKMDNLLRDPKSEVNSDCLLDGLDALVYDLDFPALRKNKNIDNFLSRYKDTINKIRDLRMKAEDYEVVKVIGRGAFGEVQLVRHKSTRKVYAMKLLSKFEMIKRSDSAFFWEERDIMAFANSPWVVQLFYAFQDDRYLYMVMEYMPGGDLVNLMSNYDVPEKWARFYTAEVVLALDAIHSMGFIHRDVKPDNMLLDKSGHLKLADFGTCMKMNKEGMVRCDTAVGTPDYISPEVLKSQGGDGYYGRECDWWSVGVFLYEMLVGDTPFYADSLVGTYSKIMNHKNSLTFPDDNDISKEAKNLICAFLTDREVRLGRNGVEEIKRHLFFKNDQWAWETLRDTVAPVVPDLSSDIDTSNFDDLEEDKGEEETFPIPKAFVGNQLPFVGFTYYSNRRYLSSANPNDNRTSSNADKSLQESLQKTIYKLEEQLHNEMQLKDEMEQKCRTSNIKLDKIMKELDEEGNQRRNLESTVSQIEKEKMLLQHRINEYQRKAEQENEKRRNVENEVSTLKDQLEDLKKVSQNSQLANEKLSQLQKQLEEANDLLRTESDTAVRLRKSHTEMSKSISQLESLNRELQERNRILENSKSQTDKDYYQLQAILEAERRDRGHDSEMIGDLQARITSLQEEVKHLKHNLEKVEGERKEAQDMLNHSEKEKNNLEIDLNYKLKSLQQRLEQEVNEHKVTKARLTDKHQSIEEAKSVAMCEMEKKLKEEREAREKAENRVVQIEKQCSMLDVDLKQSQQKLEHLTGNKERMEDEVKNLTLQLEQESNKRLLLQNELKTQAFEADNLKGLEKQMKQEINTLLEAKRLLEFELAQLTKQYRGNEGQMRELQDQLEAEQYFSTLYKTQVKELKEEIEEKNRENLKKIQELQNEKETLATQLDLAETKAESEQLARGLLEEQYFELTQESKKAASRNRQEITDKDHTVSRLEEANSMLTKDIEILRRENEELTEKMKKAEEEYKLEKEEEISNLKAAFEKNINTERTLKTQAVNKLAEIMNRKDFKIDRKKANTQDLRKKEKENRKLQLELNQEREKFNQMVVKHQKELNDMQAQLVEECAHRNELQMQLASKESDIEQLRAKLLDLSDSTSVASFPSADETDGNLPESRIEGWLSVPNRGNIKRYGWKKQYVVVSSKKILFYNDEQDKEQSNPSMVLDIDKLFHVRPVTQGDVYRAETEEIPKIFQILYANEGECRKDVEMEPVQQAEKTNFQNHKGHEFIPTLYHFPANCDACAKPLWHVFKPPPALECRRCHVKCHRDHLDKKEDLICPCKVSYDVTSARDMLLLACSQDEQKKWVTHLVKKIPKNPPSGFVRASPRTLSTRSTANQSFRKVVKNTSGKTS

Row | Structure (SMILES) | IC50 [µM]
1 | CN(C(=O)c1cc2ccc(-c3nccc(Nc4ccc(-c5cn[nH]c5)cc4)n3)cc2[nH]1)C1CCOCC1 [TDI01381, 6-(4-((4-(1H-pyrazol-4-yl)phenyl)amino)pyrimidin-2-yl)-N-methyl-N-(tetrahydro-2H-pyran-4-yl)-1H-indole-2-carboxamide] | 4.11
2 | C[C@H](CN)NC(=O)c1cc2ccc(-c3nccc(Nc4ccc(-c5cn[nH]c5)cc4)n3)cc2[nH]1 [TDI01855, (R)-6-(4-((4-(1H-pyrazol-4-yl)phenyl)-amino)-pyrimidin-2-yl)-N-(1-aminopropan-2-yl)-1H-indole-2-carboxamide] | 5.42
3 | O=C(NC1CCOC1)c1cc2ccc(-c3nccc(Nc4ccc(-c5cn[nH]c5)cc4)n3)cc2[nH]1 (centres unmarked) [TDI01337, 6-(4-((4-(1H-pyrazol-4-yl)phenyl)-amino)-pyrimidin-2-yl)-N-(tetrahydro-furan-3-yl)-1H-indole-2-carboxamide] | 2.76
4 | Cn1c(C(=O)N2CC(F)(F)C2)cc2ccc(-c3nccc(Nc4ccc(-c5cn[nH]c5)cc4)n3)cc21 [TDI01470, (6-(4-((4-(1H-pyrazol-4-yl)phenyl)amino)pyrimidin-2-yl)-1-methyl-1H-indol-2-yl)(3,3-difluoroazetidin-1-yl)methanone] | > 10
5 | Fc1cc(Nc2ccnc(-c3ccc4cc(-c5nccs5)[nH]c4c3)n2)ccc1-c1cn[nH]c1 [TDI01908, N-(3-fluoro-4-(1H-pyrazol-4-yl)phenyl)-2-(2-(thiazol-2-yl)-1H-indol-6-yl)pyrimidin-4-amine] | > 10
6 | N#CC1CN(C(=O)c2cc3ccc(-c4nccc(Nc5ccc(-c6cn[nH]c6)cc5)n4)cc3[nH]2)C1 [TDI01398, 1-(6-(4-((4-(1H-pyrazol-4-yl)phenyl)-amino)-pyrimidin-2-yl)-1H-indole-2-carbonyl)-azetidine-3-carbonitrile] | > 10
7 | O=C(c1cc2ccc(-c3nccc(Nc4ccc(-c5cn[nH]c5)cc4)n3)cc2[nH]1)N1CCOCC1 [TDI01331, (6-(4-((4-(1H-pyrazol-4-yl)phenyl)-amino)-pyrimidin-2-yl)-1H-indol-2-yl)-(morpholino)-methanone] | > 10
8 | O=C(NC1CCN(c2ccncc2Cl)CC1)c1cc2ccc(-c3nccc(Nc4ccc(-c5cn[nH]c5)cc4)n3)cc2[nH]1 [TDI01847B, 6-(4-((4-(1H-pyrazol-4-yl)phenyl)-amino)-pyrimidin-2-yl)-N-(1-(3-chloropyridin-4-yl)piperidin-4-yl)-1H-indole-2-carboxamide] | 3.38
9 | O=C(Nc1ccncc1Cl)c1cc2ccc(-c3nccc(Nc4ccc(-c5cn[nH]c5)cc4)n3)cc2[nH]1 [TDI01354, 6-(4-((4-(1H-pyrazol-4-yl)phenyl)-amino)-pyrimidin-2-yl)-N-(3-chloropyridin-4-yl)-1H-indole-2-caiboxamide] | > 10
10 | O=C(NC1CC1)c1cc2ccc(-c3nccc(Nc4ccc(-c5cn[nH]c5)cc4)n3)cc2[nH]1 [TDI01324, 6-(4-((4-(1H-pyrazol-4-yl)phenyl)-amino)-pyrimidin-2-yl)-N-cyclopropyl-1H-indole-2-carboxamide] | 1.74
11 | CN1CCC(N2CCCC(NC(=O)c3cc4ccc(-c5nccc(Nc6ccc7[nH]ncc7c6)n5)cc4[nH]3)C2)CC1 (centres unmarked) [TDI01318, 6-(4-((1H-indazol-5-yl)amino)-pyrimidin-2-yl)-N-(1′-methyl-[1-4′-bipiperidin]-3-yl)-1H-indole-2-carboxamide] | 0.274
12 | CN(CC(F)(F)F)C(=O)c1cc2ccc(-c3ncc(F)c(Nc4ccc(-c5cn[nH]c5)cc4)n3)cc2[nH]1 [TDI01426, 6-(4-((4-(1H-pyrazol-4-yl)phenyl)amino)-5-fluoropyrimidin-2-yl)-N-methyl-N-(2,2,2-trifluoroethyl)-1H-indole-2-carboxamide] | > 10
13 | O=C(NC1CCOC1)c1cc2ccc(-c3nc(Nc4ccc(-c5cn[nH]c5)cc4)c4sccc4n3)cc2[nH]1 (centres unmarked) [TDI01423, 6-(4-((4-(1H-pyrazol-4-yl)phenyl)-amino)-thieno-[3,2-d]-pyrimidin-2-yl)-N-(tetrahydro-furan-3-yl)-1H-indole-2-carboxamide] | > 10
14 | CN(CCC#N)C(=O)c1cc2ccc(-c3nccc(Nc4ccc(-c5cn[nH]c5)cc4)n3)cc2[nH]1 [TDI01442, 6-(4-((4-(1H-pyrazol-4-yl)phenyl)amino)pyrimidin-2-yl)-N-(2-cyanoethyl)-N-methyl-1H-indole-2-carboxamide] | > 10
15 | CC(C)NC(=O)N1Cc2ccc(-c3nccc(Nc4ccc5[nH]ncc5c4)n3)cc2C1 [TDI01312, 5-(4-((1H-indazol-5-yl)amino)pyrimidin-2-yl)-N-isopropylisoindoline-2-carboxamide] | 1.84
16 | O=C(c1cc2ccc(-c3nccc(Nc4ccc(-c5cn[nH]c5)cc4)n3)cc2[nH]1)N1CCO[C@@H](CO)C1 [TDI01852] | > 10
17 | Cc1nc(-c2ccc3cc(C(=O)Nc4ccnnc4)[nH]c3c2)nc(Nc2ccc3[nH]ncc3c2)c1C [TDI01232, 6-(4-((1H-indazol-5-yl)amino)-5,6-dimethyl-pyrimidin-2-yl)-N-(pyridazin-4-yl)-1H-indole-2-carboxamide] | > 10
18 | CNC(=O)c1cc2ccc(-c3nc(Nc4ccc(-c5cn[nH]c5)cc4)c4sccc4n3)cc2[nH]1 [TDI01379, 6-(4-((4-(1H-pyrazol-4-yl)phenyl)-amino)thieno-[3.2-d]-pyrimidin-2-yl)-N-methyl-1H-indole-2-carboxamide] | > 10

Now from value to compound:

Row | IC50 [µM] | Structure (SMILES)
19 | > 10 | O=C(Nc1ccnnc1)c1cc2ccc(-c3ncc(F)c(Nc4ccc5[nH]ncc5c4)n3)cc2[nH]1 [TDI01213, 6-(4-((1H-indazol-5-yl)amino)-5-fluoropyrimidin-2-yl)-N-(pyridazin-4-yl)-1H-indole-2-carboxamide]
20 | 2.53 | O=C(Nc1ccnnc1)c1c[nH]c2ccc(-c3nccc(Nc4ccc5[nH]ncc5c4)n3)cc12 [TDI01191, 5-(4-((1H-indazol-5-yl)amino)-pyrimidin-2-yl)-N-(pyridazin-4-yl)-1H-indole-3-carboxamide]
21 | 5.58 | CN(C(=O)c1cc2ccc(-c3nccc(Nc4ccc5[nH]ncc5c4)n3)cc2[nH]1)c1ccnnc1 [TDI01347, 6-(4-((1H-indazol-5-yl)amino)-pyrimidin-2-yl)-N-methyl-N-(pyridazin-4-yl)-1H-indole-2-carboxamide]
22 | > 10 | O=C(Nc1nncs1)c1cc2ccc(-c3nccc(Nc4ccc5[nH]ncc5c4)n3)cc2[nH]1 [TDI01247, 6-(4-((1H-indazol-5-yl)amino)pyrimidin-2-yl)-N-(1,3,4-thiadiazol-2-yl)-1H-indole-2-carboxamide]
23 | > 10 | O=C(Nc1ccnnc1)c1cc2ccc(-c3nc(Nc4ccc5[nH]ncc5c4)cc4nccn34)cc2[nH]1 [TDI01164, 6-(7-((1H-indazol-5-yl)amino)-imidazo[1,2-c]pyrimidin-5-yl)-N-(pyridazin-4-yl)-1H-indole-2-carboxamide]
24 | > 10 | O=C(Nc1ccccn1)c1cc2ccc(-c3nccc(Nc4ccc5[nH]ncc5c4)n3)cc2[nH]1 [TDI01311, 6-(4-((1H-indazol-5-yl)amino)pyrimidin-2-yl)-N-(pyridin-2-yl)-1H-indole-2-carboxamide]
25 | > 10 | O=C(Nc1ccnnc1)c1ccc2ccc(-c3nccc(Nc4ccc5[nH]ncc5c4)n3)cc2n1 [TDI01236, 7-(4-((1H-indazol-5-yl)ami-no)pyrimidin-2-yl)-N-(pyridazin-4-yl)quinoline-2-carboxamide]
26 | > 10 | Cc1cc(Nc2ccc3[nH]ncc3c2)nc(-c2ccc3cc(C(=O)Nc4ccnnc4)[nH]c3c2)n1 [TDI01251, 6-(4-((1H-indazol-5-yl)amino)-6-methyl-pyrimidin-2-yl)-N-(pyridazin-4-yl)-1H-indole-2-carboxamide]
27 | > 10 | O=C(Nc1ccnnc1)c1cc2ccc(-c3nccc(Nc4ccc5[nH]ncc5c4)n3)cc2[nH]1 [TDI01152, 6-(4-((1H-indazol-5-yl)amino)-pyrimidin-2-yl)-N-(pyridazin-4-yl)-1H-indole-2-carboxaniide]
28 | 6.92 | Cn1c(C(=O)Nc2ccnnc2)cc2ccc(-c3nccc(Nc4ccc5[nH]ncc5c4)n3)cc21 [TDI01201, 6-(4-((1H-indazol-5-yl)amino)-pyrimidin-2-yl)-1-methyl-N-(pyridazin-4-yl)-1H-indole-2-carboxamide]
29 | 0.947 | O=C(Nc1cnncc1Cl)c1cc2ccc(-c3nccc(Nc4ccc5[nH]ncc5c4)n3)cc2[nH]1 [TDI01181, 6-(4-((1H-indazol-5-yl)amino)-pyrimidin-2-yl)-N-(5-chloropridazin-4-yl)-1H-indole-2-carboxamide]
